pKi: −log10 of the molar value.
molecular target: Substance-P receptor (Homo sapiens, UniProt P25103); assay: Displacement of [3H]-labeled substance P from cloned human NK1 receptor expressed in CHO cells; type: cell-based; settings: not given
Sequence (P25103 whole entry): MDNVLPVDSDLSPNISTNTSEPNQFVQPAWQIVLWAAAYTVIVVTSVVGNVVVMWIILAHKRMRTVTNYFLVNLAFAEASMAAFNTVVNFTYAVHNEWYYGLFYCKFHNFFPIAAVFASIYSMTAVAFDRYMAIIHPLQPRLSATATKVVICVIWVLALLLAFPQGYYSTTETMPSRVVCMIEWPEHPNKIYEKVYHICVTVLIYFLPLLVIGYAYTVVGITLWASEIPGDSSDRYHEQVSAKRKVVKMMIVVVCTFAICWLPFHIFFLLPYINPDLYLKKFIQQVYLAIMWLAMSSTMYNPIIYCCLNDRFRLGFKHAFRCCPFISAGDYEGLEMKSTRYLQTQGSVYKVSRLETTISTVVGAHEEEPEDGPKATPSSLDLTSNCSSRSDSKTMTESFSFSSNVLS

Row | pKi | Structure (SMILES)
1 | 7.35 | CN(Cc1cc(C(F)(F)F)cc(C(F)(F)F)c1)C(=O)c1ccccc1-c1ccccc1Br
2 | < 5.00 | CC(C)(NC(=O)c1ccccc1-c1ccccc1)c1cc(C(F)(F)F)cc(C(F)(F)F)c1
3 | 7.29 | CN(Cc1cc(C(F)(F)F)cc(C(F)(F)F)c1)C(=O)c1ccccc1-c1ccccc1
4 | 8.40 | Cc1ccccc1-c1cccnc1N(C)C(=O)C(C)(C)c1cc(C(F)(F)F)cc(C(F)(F)F)c1
5 | 9.36 | Cc1ccccc1-c1nc(N2CCN(C)CC2)ncc1N(C)C(=O)C(C)(C)c1cc(C(F)(F)F)cc(C(F)(F)F)c1
6 | 7.17 | CN(C(=O)C(C)(C)c1cc(C(F)(F)F)cc(C(F)(F)F)c1)c1ccccc1-c1ccccc1
7 | 7.03 | Clc1cncc(Cl)c1N/N=C/c1ccccc1-c1c(Cl)cccc1Cl
8 | 7.82 | Cc1onc(-c2c(Cl)cccc2Cl)c1/C=N/Nc1c(Cl)cncc1Cl
9 | 8.07 | Cc1ccccc1-c1ccncc1C(=O)N(C)Cc1cc(C(F)(F)F)cc(C(F)(F)F)c1
10 | 8.77 | Cc1ccccc1-c1nc(N2CCN(C)CC2)ncc1C(=O)N(C)Cc1cc(C(F)(F)F)cc(C(F)(F)F)c1
11 | 8.85 | Cc1ccccc1-c1cc(N2CCN(C)CC2)ccc1C(=O)N(C)Cc1cc(C(F)(F)F)cc(C(F)(F)F)c1
12 | 8.48 | Cc1ccccc1-c1cnccc1N(C)C(=O)C(C)(C)c1cc(C(F)(F)F)cc(C(F)(F)F)c1
13 | 7.31 | Clc1cncc(Cl)c1N/N=C/c1ccccc1-c1ccccc1Br
14 | 8.34 | Cc1ccccc1-c1cnccc1C(=O)N(C)Cc1cc(C(F)(F)F)cc(C(F)(F)F)c1
15 | 6.65 | FC(F)(F)c1cc(COCc2ccccc2-c2ccccc2)cc(C(F)(F)F)c1
16 | 8.42 | Cc1ccccc1-c1cccnc1C(=O)N(C)Cc1cc(C(F)(F)F)cc(C(F)(F)F)c1

Row | pKi | Structure (SMILES)
17 | 8.70 | Cc1ccccc1-c1ccc(N2CCN(C)CC2)nc1N(C)C(=O)C(C)(C)c1cc(C(F)(F)F)cc(C(F)(F)F)c1
18 | 8.89 | Cc1ccccc1-c1cc(N2CCS(=O)(=O)CC2)ncc1N(C)C(=O)C(C)(C)c1cc(C(F)(F)F)cc(C(F)(F)F)c1
19 | 6.43 | FC(F)(F)c1cc(CNCc2ccccc2-c2ccccc2)cc(C(F)(F)F)c1
20 | 8.21 | Cc1ccccc1-c1ccc(N2CCN(C)CC2)nc1C(=O)N(C)Cc1cc(C(F)(F)F)cc(C(F)(F)F)c1
21 | 6.50 | Cc1ccccc1-c1ccccc1/C=N/Nc1c(Cl)cncc1Cl
22 | 6.25 | CN(C(=O)Cc1cc(C(F)(F)F)cc(C(F)(F)F)c1)c1ccccc1-c1ccccc1
23 | 8.96 | Cc1ccccc1-c1cnc(N2CCN(C)CC2)nc1N(C)C(=O)C(C)(C)c1cc(C(F)(F)F)cc(C(F)(F)F)c1
24 | 7.66 | CN(Cc1cc(C(F)(F)F)cc(C(F)(F)F)c1)C(=O)c1ccccc1-c1ccccc1Cl
25 | 9.40 | Cc1ccccc1-c1cc(N2CCC(O)CC2)ncc1N(C)C(=O)C(C)(C)c1cc(C(F)(F)F)cc(C(F)(F)F)c1
26 | < 5.00 | O=C(NCc1cc(C(F)(F)F)cc(C(F)(F)F)c1)c1ccccc1-c1ccccc1
27 | 8.77 | Cc1ccccc1-c1cnc(N2CCN(C)CC2)cc1N(C)C(=O)C(C)(C)c1cc(C(F)(F)F)cc(C(F)(F)F)c1
28 | 6.03 | Clc1cncc(Cl)c1N/N=C/c1ccccc1-c1ccccc1
29 | 6.76 | Clc1ccccc1-c1ccccc1/C=N/Nc1c(Cl)cncc1Cl
30 | 6.53 | CN(C(=O)c1ccccc1-c1ccccc1)C(C)(C)c1cc(C(F)(F)F)cc(C(F)(F)F)c1
31 | 6.14 | CN(Cc1cc(C(F)(F)F)cc(C(F)(F)F)c1)Cc1ccccc1-c1ccccc1
32 | 9.02 | Cc1ccccc1-c1cc(N2CCN(C)CC2)ncc1N(C)C(=O)C(C)(C)c1cc(C(F)(F)F)cc(C(F)(F)F)c1 [NETUPITANT]

tested on: Gerbil, jird; assay: Inhibition of GR-73632 induced foot tapping in gerbil, po; type: functional; settings: Meriones, read-out: ID50 (the source's name)

Row | Structure (SMILES) | ED50
33 | Cc1ccccc1-c1cc(N2CCS(=O)(=O)CC2)ncc1N(C)C(=O)C(C)(C)c1cc(C(F)(F)F)cc(C(F)(F)F)c1 | 0.8 mg/kg
34 | Cc1ccccc1-c1cc(N2CCC(O)CC2)ncc1N(C)C(=O)C(C)(C)c1cc(C(F)(F)F)cc(C(F)(F)F)c1 | 0.5 mg/kg
35 | Cc1ccccc1-c1cc(N2CCOCC2)ncc1N(C)C(=O)C(C)(C)c1cc(C(F)(F)F)cc(C(F)(F)F)c1 [BEFETUPITANT] | 0.2 mg/kg
36 | Cc1ccccc1-c1cc(N2CCN(C)CC2)ncc1N(C)C(=O)C(C)(C)c1cc(C(F)(F)F)cc(C(F)(F)F)c1 [NETUPITANT] | 0.5 mg/kg

Source: ChEMBL document CHEMBL1138982 (Bioorg Med Chem Lett, 2006)
